Measurements: patent US20250027930A1, “SMALL MOLECULES FOR REPROGRAMING ANTI-TUMOR IMMUNITY OF T CELLS” (THE SCRIPPS RESEARCH INSTITUTE, priority 2021, published 2025)

Assays:
[1] = test system: OT-I splenocytes; assay: OT-I splenocyte culture with purine/pyrimidine pathway compounds; type: cell-based, mouse; conditions: added together with N-Acetylneuraminic acid on day 3, analyzed day 5
Procedure: We therefore tested if purine and pyrimidine nucleotides have similar effects as N-Acetylneuraminic acid to help maintain less differentiated phenotypes of T cells during expansion. OT-I splenocytes were cultured with 500 nM […] peptide (OVA257-264) for three days at initial cell density of 1×10^6/mL to activate and expand the CD8+ T cell population. Different concentrations of the products or intermediates in purine or pyrimidine de novo synthesis pathways were added on day 3. The tested compounds include, e.g., guanosine, deoxyguanosine, adenosine, deoxyadenosine, inosine, xanthosine, orotidine, uridine, cytidine, deoxycytidine, thymidine, deoxythymidine, 5-Aminoimidazole-4-carboxamide ribonucleotide (AICAR), orotate, and dihydroorotate. The phenotype of expanded T cells were analyzed on day 5.

[2] = test system: OT-1 cells; assay: OT-I-Tcf7GFP splenocyte screen: proliferation and Tim3−TCF-1+ ratio; type: cell-based, mouse; conditions: Day7; for Tim3^−TCF-1^+ ratio of CD8^+ T cells (%): w/o 2.6
Procedure: Cell number was recorded on day 3 and day 7. On day 7, cells were stained with anti-CD8a (PerCP-Cy5.5) and anti-Tim3 (BV421) antibodies for flow cytometry or plate reader analysis.
Because TCF1 expression positively correlates with T cell stemness, the greater signal of EGFP a T cell expresses, the less differentiated the T cell is. Furthermore, if the compound also facilitates T cells proliferation, there would be more T cells per well in comparison to the untreated control. Therefore, a compound that not only maintains TCF-1 expression but also facilitates T cell growth would produce the strongest green fluorescence intensity. […] GlcA stands for glucuronic acid.

[3] = test system: P14 cells; assay: P14 splenocyte in vitro activation, re-stimulation and expansion; type: cell-based, mouse; conditions: for Fold of proliferation, Normalized to W/O: P14 cells
[4] = test system: P14 CD8+ T cells; type: in vivo, mouse; conditions: 14 dpi LCMV-Cl13; cells treated in vitro, vs untreated
[5] = test system: B16-OVA tumor; type: in vivo, mouse
Procedure: (§1) Naïve splenocytes from OT-1 mice were stimulated in vitro with OVA257-264 (500 nM) and IL-2 (60 IU/mL) in the presence or absence of an added compound for 3 days at a density of 1 million/mL (100 uL/well in 96/well plate), then expanded for 4 days. On day 7, PD-1, Tim3 and TCF-1 expressions were assessed by flow cytometry by staining cells with anti-CD8a (PerCP-Cy5.5), anti-Tim3 (BV421) and anti-TCF-1 (AF488) antibodies. For adoptive transfer, 0.6M B16-OVA cells (6×10^5) were inoculated subcutaneously 3 to 5 days before transfer in C57BL/6. On the day of adoptive transfer, mice were irradiated with 5 Gy X-ray, randomized according to tumor size, and intravenously injected with 0.2-0.3M of CD8+OT-1 T cells (2×10^5) expanded under different conditions, followed by administration of 50000 IU IL-2 every 12 h for four days. In the control group, mice were injected with cell-free vehicle only. For assessment of adoptive transfer of OT-1 CD8+ T cells activated and expanded by contacting the cells with fructose, on day 9 after transfer, anti-PD-1 (100 ug/mouse) was administered to the mice that had received T cell transfer. For assessment of adoptive transfer of OT-1 CD8+ T cells activated and expanded by contacting cells with Neu5Ac, on day 14 and day 21 after transfer, anti-PD-1 (100 ug/mouse) was administered to the mice that had received T cell transfer. The tumor growth was monitored every 3 to 4 days by measuring tumor size. Percent survival was also monitored and recorded within a period of 40 days post treatment. To evaluate tumor infiltrating OT-1 T cells, 0.6M B16-OVA cells (6×10^5) were inoculated subcutaneously 3 to 5 days before transfer in C57BL/6. On the day of adoptive transfer, mice were irradiated with 5 Gy X-ray, randomized according to tumor size, and intravenously injected with 0.2-0.3M of CD8+OT-1 T cells (2×10^5) expanded under different conditions, followed by administration of 50000 IU IL-2 every 12 h for four days. Tumors were then isolated and assessed for percentage of OT-I T cells from the total CD8+ T cells and OT-1 T cell number per gram of tumor tissue. To evaluate apoptosis, Naïve OT-1 splenocytes were stimulated by OVA257-264 (500 nM) without IL-2 in the presence of absence of sugars for 5 days followed by using Annexin V Apoptosis detection kit (Biolegend). […] To evaluate other cellular characteristics, naïve OT-1 splenocytes were stimulated by OVA257-264 (500 nM) with IL-2 (60 IU/mL) in the presence or absence of sugars for 7 or 8 days. On day 7 or 8 cells were taken and analyzed by assessment of ROS, NADPH/NADP+ ratio, and GSH/GSSG ratio.

[6] = test system: OT-1 CD8+ T cells; assay: OT-1 splenocyte activation and expansion, day 7 flow cytometry; type: cell-based, mouse
Procedure: Naïve splenocytes from OT-1 mice were stimulated in vitro with OVA257-264 (500 nM) and IL-2 (60 IU/mL) in the presence or absence of an added compound for 3 days at a density of 1 million/mL (100 uL/well in 96/well plate), then expanded for 4 days. On day 7, PD-1, Tim3 and TCF-1 expressions were assessed by flow cytometry by staining cells with anti-CD8a (PerCP-Cy5.5), anti-Tim3 (BV421) and anti-TCF-1 (AF488) antibodies. For adoptive transfer, 0.6M B16-OVA cells (6×10^5) were inoculated subcutaneously 3 to 5 days before transfer in C57BL/6. On the day of adoptive transfer, mice were irradiated with 5 Gy X-ray, randomized according to tumor size, and intravenously injected with 0.2-0.3M of CD8+OT-1 T cells (2×10^5) expanded under different conditions, followed by administration of 50000 IU IL-2 every 12 h for four days. In the control group, mice were injected with cell-free vehicle only. For assessment of adoptive transfer of OT-1 CD8+ T cells activated and expanded by contacting the cells with fructose, on day 9 after transfer, anti-PD-1 (100 ug/mouse) was administered to the mice that had received T cell transfer. For assessment of adoptive transfer of OT-1 CD8+ T cells activated and expanded by contacting cells with Neu5Ac, on day 14 and day 21 after transfer, anti-PD-1 (100 ug/mouse) was administered to the mice that had received T cell transfer. The tumor growth was monitored every 3 to 4 days by measuring tumor size. Percent survival was also monitored and recorded within a period of 40 days post treatment. To evaluate tumor infiltrating OT-1 T cells, 0.6M B16-OVA cells (6×10^5) were inoculated subcutaneously 3 to 5 days before transfer in C57BL/6. […] Tumors were then isolated and assessed for percentage of OT-I T cells from the total CD8+ T cells and OT-1 T cell number per gram of tumor tissue. […] On day 7 or 8 cells were taken and analyzed by assessment of ROS, NADPH/NADP+ ratio, and GSH/GSSG ratio.

[7] = test system: OT-1 splenocytes; assay: Apoptosis (Annexin V) and IL-2 production of OT-1 splenocytes stimulated without IL-2; type: cell-based, mouse; conditions: OVA257-264 500 nM without IL-2, 5 days
Procedure: as §1

[8] = test system: OT-1 splenocytes; assay: ROS, NADPH/NADP+ ratio and GSH/GSSG ratio of OT-1 splenocytes; type: cell-based, mouse; conditions: day 7 or 8, with IL-2; vs T cells not treated with sugar
Procedure: as §1

[9] = test system: MC38 TSA-reactive CD8+ TILs; assay: Rapid expansion of TSA-reactive CD8+ TILs from MC38 tumors; type: cell-based, mouse
Procedure: Sugars were added at the beginning or during the expansion of the TILs, and kept till the end of expansion. On expansion day 9, phenotypes of the expanded T cells were assessed, and the cells were used for adoptive transfer (FIG. 6E). For adoptive transfer, 0.5 million cells (B16-OVA or MC38) were inoculated subcutaneously on each mouse on day 0, Listeria monocytogenes-OVA (LM-OVA) infection 0.5 million CFU/mice on day 1, and blood analysis was recorded on day 7.

[10] = test system: TILs from B16-OVA tumor; type: cell-based, mouse; conditions: day 7 rapid expansion; vs without sugars
Procedure: TILs from B16-OVA tumor were isolated on day10 after inoculation, and Tim-3^−TCF/GFP^+ and Tim-3^+TCF/GFP^− in tetramer positive population were collected by live cell sorting (FIG. 15A). Phenotype features of Tim-3^−TCF/GFP^+ (FIG. 15B) and Tim-3^+TCF/GFP^− (FIG. 15C) were analyzed on day 7 after rapid expansion with feeder cells (TILs/feeder cell: 1/200) in the presence or absence of sugars.
To investigate which population that sugars mainly changed on T cells, B16-OVA cancer cells (7×10^5 cells) were subcutaneously inoculated into the left or right flank of TCF7^GFP mice expressing an EGFP fluorescent reporter from the endogenous Tcf7 locus, which enable us to track the expression of TCF-1 in live cells.

[11] = Mus musculus, Splenocyte, 168 h, 60 mM, OT-1 cells, read-out: Proliferation fold, Normalized to W/O

NC(=O)c1ncn([C@@H]2O[C@H](COP(=O)(O)O)[C@@H](O)[C@H]2O)c1N [AICAR, 5-Aminoimidazole-4-carboxamide ribonucleotide]
cell proliferation [1]: without significant impact on cell proliferation

O=C(CO)[C@@H](O)[C@H](O)[C@H](O)CO [Fructose, fructose]
Tim3^−TCF-1^+ ratio of CD8^+ T cells (%) ([2]; 80 mM): 43.9%
activity at 80000 µM ([2]; Mus musculus, Splenocyte, 168 h, 80 mM, OT-1 cells, read-out: Proliferation fold, Normalized to W/O): 109%
Fold of proliferation, Normalized to W/O ([3]; Day6, 80 mM): 2.10 fold
Tim3^−TCF-1^+ ratio of CD8^+ T cells (%) ([3]; Day6, 80 mM, w/o 55.0): 87.9%
Fold of proliferation, Normalized to W/O ([3]; Day9, 80 mM): 2.94 fold
Tim3^−TCF-1^+ ratio of CD8^+ T cells (%) ([3]; Day9, 80 mM, w/o 3.5): 48.9%
percentages and total numbers of expanded virus-specific P14 CD8+ T cells in the spleen and liver [4]: significantly higher
capabilities to control tumor growth ([5]; adoptive transfer of sugar-treated OT-1 T cells, vs untreated T cells): significantly better

O=C[C@H](O)[C@@H](O)[C@@H](O)[C@H](O)CO [Galactose, galactose]
Fold of proliferation, Normalized to W/O ([3]; Day6, 80 mM): 1.59 fold
Tim3^−TCF-1^+ ratio of CD8^+ T cells (%) ([3]; Day6, 80 mM, w/o 55.0): 88.9%
Fold of proliferation, Normalized to W/O ([3]; Day9, 80 mM): 1.87 fold
Tim3^−TCF-1^+ ratio of CD8^+ T cells (%) ([3]; Day9, 80 mM, w/o 3.5): 37.4%
T cell proliferation ([6]; 80 mM, OT-1 cells): significantly suppressed
percentage of Tim3−TCF-1+ CD8+ T cells (in words) ([6]; OT-1 cells day 7, compared with fructose or sucrose): increased the percentage of Tim3−TCF-1+ CD8+ T cells but at a lower level

O=C[C@H](O)[C@@H](O)[C@H](O)[C@H](O)C(=O)O [GlcA, glucuronic acid]
Tim3^−TCF-1^+ ratio of CD8^+ T cells (%) ([2]; 60 mM): 65.3%
activity at 60000 µM [2, 11]: 97%

CC(=O)N[C@H]1C(O)O[C@H](CO)[C@@H](O)[C@@H]1O (stereo partly shown) [GlcNAc, N-Acetylglucosamine]
Tim3^−TCF-1^+ ratio of CD8^+ T cells (%) ([2]; 60 mM): 28.8%
activity at 60000 µM [2, 11]: 145%
Fold of proliferation, Normalized to W/O ([3]; Day6, 60 mM): 2.47 fold
Tim3^−TCF-1^+ ratio of CD8^+ T cells (%) ([3]; Day6, 60 mM, w/o 55.0): 89.2%
Fold of proliferation, Normalized to W/O ([3]; Day9, 60 mM): 1.44 fold
Tim3^−TCF-1^+ ratio of CD8^+ T cells (%) ([3]; Day9, 60 mM, w/o 3.5): 21.2%
tumor infiltrating OT-1 T cell numbers ([5]; treated T cells transferred to B16-OVA mice): increased
viability and apoptotic characteristics ([7]; vs T cells not treated with sugar): enhanced viability and differential apoptotic characteristics
production of IL-2 ([7]; vs no sugar): significantly greater
GSH/GSSG ratio [8]: greater
NADPH/NADP+ ratio [8]: greater
ROS [8]: significantly less
cell surface anti-CLA (Cutaneous Lymphocyte-associated Antigen) staining [9]: significant increase
maintenance of progenitor exhausted features of sorted Tim-3-TCF-GFP^+ TILs [10]: maintain more Tim-3^−TCF/GFP^+ cells
